Measured values from ChEMBL document CHEMBL1150532, “Syntheses and antifilarial profile of 5-amino and 5,8-diamino-isoquinoline derivatives: A new class of antifilarial agents” (1996).

Tests used:
Type in all cases: functional
Acanthocheilonema viteae [1] = experiment: In vitro inhibition of ATP content in worms at concentration 1.0 uM
Acanthocheilonema viteae [2] = experiment: In vitro inhibition of Tubulin content in worms at concentration 1.0 uM
Mastomys natalensis [3] = experiment: Compound was evaluated in vivo for microfilaricidal activity against Acanthocheilonema viteae infection in Mastomys natalensis at dose 50 mg/kg *5days (i.p.); settings: route intraperitoneal
Acanthocheilonema viteae [4] = experiment: In vitro inhibition of glucose uptake by Acanthocheilonema viteae at concentration 1.0 uM
Acanthocheilonema viteae [5] = experiment: In vitro increase in lactate production at concentration 1.0 uM
Mastomys natalensis [6] = experiment: Compound was evaluated in vivo for microfilaricidal activity against Acanthocheilonema viteae infection in Mastomys natalensis; 0 represents inactive
Acanthocheilonema viteae [7] = experiment: Antifilarial activity was measured by percent sterilization of A. viteae at dose 50 mg/kg *5days (i.p.); 0 represents inactive; settings: route intraperitoneal
Mastomys natalensis [8] = experiment: Compound was evaluated in vivo for microfilaricidal activity against Acanthocheilonema viteae infection in Mastomys natalensis at dose 50 mg/kg/5days (i.p.); 0 represents inactive; settings: route intraperitoneal
Acanthocheilonema viteae [9] = experiment: Antifilarial activity was measured by percent sterilization of A. viteae at dose 50 mg/kg *5days (i.p.); settings: route intraperitoneal
Mastomys natalensis [10] = experiment: Compound was evaluated in vivo for microfilaricidal activity against Acanthocheilonema viteae infection in Mastomys natalensis at dose 50 mg/kg/5days (i.p.); settings: route intraperitoneal
Mastomys natalensis [11] = experiment: Compound was evaluated in vivo for microfilaricidal activity against Acanthocheilonema viteae infection in Mastomys natalensis
Acanthocheilonema viteae [12] = experiment: Antifilarial activity was measured by percent sterilization of A. viteae at dose 50 mg/kg/5days (i.p.); 0 represents inactive; settings: route intraperitoneal
Mastomys natalensis [13] = experiment: Compound was evaluated in vivo for microfilaricidal activity against Acanthocheilonema viteae infection in Mastomys natalensis at dose 350 mg/kg/5 days (i.p.); settings: route intraperitoneal

| Compound | ATP content (Acanthocheilonema viteae [1]) | Tubulin content (Acanthocheilonema viteae [2]) | Activity (Mastomys natalensis [3]) | Glucose uptake (Acanthocheilonema viteae [4]) | Lactate production (Acanthocheilonema viteae [5]) | Activity (Mastomys natalensis [6]) | Sterility (Acanthocheilonema viteae [7]) | Activity (Mastomys natalensis [8]) | Sterility (Acanthocheilonema viteae [9]) | Activity (Mastomys natalensis [10]) | Activity (Mastomys natalensis [11]) | Sterility (Acanthocheilonema viteae [12]) | Activity (Mastomys natalensis [13]) |
| --- | --- | --- | --- | --- | --- | --- | --- | --- | --- | --- | --- | --- | --- |
| O=[N+]([O-])c1ccc(N2CCOCC2)c2ccncc12 | 39.1 pmol/mg | 38.5 pmol/mg | 81 | 6.15 µM/mg | 7.19 µM/mg | 0 | 0% |  |  |  |  |  |  |
| OC1CC1Nc1cccc2cnccc12 (stereo unspecified) | 108 pmol/mg | 70.2 pmol/mg |  | 6.67 µM/mg | 7.42 µM/mg | 0 |  | 0 | 31% |  |  |  |  |
| O=C1CN(c2cccc3cnccc23)C2CC2O1 (stereo unspecified) | 74.2 pmol/mg | 35.4 pmol/mg |  | 6.09 µM/mg | 6.42 µM/mg |  | 0% |  |  | 34 | 0 |  |  |
| Clc1ccc2c(Nc3ccc(N4CCOCC4)c4ccncc34)ccnc2c1 | 37.9 pmol/mg | 45.1 pmol/mg |  | 6.26 µM/mg | 7.3 µM/mg |  |  |  |  | 76 | 60 | 0% |  |
| CCN(CC)C(=O)N1CCN(C)CC1.O=C(O)CC(O)(CC(=O)O)C(=O)O [DIETHYLCARBAMAZINE CITRATE] |  |  |  |  |  |  |  | 0 |  |  |  | 0% | 90 |
